# Measured values as given in PubChem BioAssay AID1918999 (Molecular Pharmacology Branch, DTP, NCI, 2023).
# Tested on: 556581-035-R-J1-PDC complex spheroid growth
# Assay: Anticancer human tumor 556581-035-R-J1-PDC patient-derived ovarian carcinoma cell line growth inhibition [AhR]
# Conditions: for IC50: curve of first compound; for viability, T/C: stronger effect = lower value
# Description: Multicellular complex tumor spheroid response to aryl hydrocarbon receptor antagonists in combination with a variety of drugs and investigational agents in selected tumor cell lines
# The current study was undertaken to assess response to aryl hydrocarbon receptor antagonists in combination with standard-of-care drugs and investigational agents in solid tumor complex spheroid models. Complex spheroids include a stromal component modeled by human endothelial cells (HUVEC) and fibroblasts modeled by human mesenchymal stem cells (MSCs). The concentration ranges selected for each drug and investigational agent were based upon clinically achievable concentrations if the clinical Cmax of the agent was known.
# Compounds. The drugs and investigational agents: BAY 2416964 (NSC825713), GNF351 (NSC835774), CH-223191 (NSC835775), CPI-455 (NSC825282), aza-TdCyd (NSC777586), decitabine (NSC127716), belinostat (NSC758774), entinostat (NSC756642), pevonedistat (NSC761192), tazemetostat (NSC777109), talazoparib (NSC765396), olaparib (NSC753686), selinexor (NSC780203), nedisertib (M3814, NSC802822), bortezomib (NSC756655), venetoclax (NSC766270), doxorubicin (NSC123127), elimusertib (BAY189344, NSC800525), ceralasertib (AZD6738, NSC777638), TAK-243 (NSC785004), alisertib (NSC759677), etoposide (NSC141540), topotecan (NSC609699), eribulin (NSC707389), gemcitabine (NSC613327), carboplatin (NSC241240), cisplatin (NSC119875), and SN-38 (NSC673596) were obtained from the National Cancer Institute (NCI) Developmental Therapeutics Program Chemical Repository (32). The FDA-approved anticancer drug set is available from the Developmental Therapeutics Program at https://dtp.cancer.gov/organization/dscb/obtaining/available plates.htm. […] The stock solutions were prepared in dimethyl sulfoxide (DMSO, Sigma-Aldrich, St. Louis, MO, cat. D2650), except for the platinum compounds which were prepared in saline (Quality Biological, Gaithersburg, MD, cat. 114-055-101), at 800-fold the tested concentration and stored at -70 degrees C prior to their use. All drugs and investigational agents were tested over a range starting from a high concentration at or near the clinical Cmax and decreasing in half-log increments. If the clinical Cmax for an agent had not been determined, the highest concentration tested was 10 microM (Table 1).
# Cell Culture. All cells were maintained in an incubator at 37 degrees C and 5% CO2 with 95% humidity. The PDC lines were cultured according to standard operating procedures established by the NCI PDMR (https://pdmr.cancer.gov). Briefly, all PDCs were thawed and cultured in Matrigel-coated flasks prepared with a working solution of 1X Ham's F-12 nutrient mix, without supplementation (Invitrogen, Waltham, MA, cat. 11765054), 100 U/mL penicillin-streptomycin (Invitrogen, cat. 15140122), and 2.5% Matrigel (Corning Inc., Corning, NY, cat. 354248) for the first three passages. All PDCs were cultured in complete DMEM/F-12 media containing advanced DMEM/F-12 (Invitrogen, cat. 12634028), 4.9% defined fetal bovine serum, heat inactivated (HyClone Laboratories Inc., Logan, UT, cat. SH30070.03HI), 389 ng/mL hydrocortisone (Sigma-Aldrich, cat. H4001), 9.7 ng/mL human EGF recombinant protein (Invitrogen, cat. PHG0313), 23.4 microg/mL adenine (Sigma-Aldrich, cat. A2786), 97.3 U/mL penicillin-streptomycin (Invitrogen, cat. 15140122), 1.9 mM L-glutamine (Invitrogen, cat. 25030081), and 9.7 microM Y-27632 dihydrochloride (Tocris Bioscience, Bristol, United Kingdom, cat. 1254). The PDCs were cultured in complete DMEM/F12 media without 10 microM Y-27632 dihydrochloride for at least two passages prior to the screen. The established cell lines NCI-H1341 and […] were cultured in DMEM/F-12, HEPES (Invitrogen, cat. 11330032), 5% defined fetal bovine serum (HyClone Laboratories Inc., cat. SH30070.03), ITS premix universal culture supplement [insulin (5 microg/mL), transferrin (5 microg/mL), and selenious acid (5 ng/mL)] […]
# [1] = second compound 0.1 µM, first compound 0.0316 µM
# [2] = second compound 0.1 µM, first compound 0.1 µM
# [3] = second compound 0.316 µM, first compound 0.0316 µM
# [4] = second compound 0.316 µM, first compound 0.1 µM
# [5] = second compound 1 µM, first compound 0.0316 µM
# [6] = second compound 1 µM, first compound 0.1 µM
# [7] = second compound 3.16 µM, first compound 0.0316 µM
# [8] = second compound 3.16 µM, first compound 0.1 µM
# [9] = second compound 10 µM, first compound 0.0316 µM
# [10] = second compound 10 µM, first compound 0.1 µM
# [11] = second compound 0.1 µM, first compound 0.316 µM
# [12] = second compound 0.1 µM, first compound 1 µM
# [13] = second compound 0.1 µM, first compound 3.16 µM
# [14] = second compound 0.1 µM, first compound 10 µM
# [15] = second compound 0.316 µM, first compound 0.316 µM
# [16] = second compound 0.316 µM, first compound 1 µM
# [17] = second compound 0.316 µM, first compound 3.16 µM
# [18] = second compound 0.316 µM, first compound 10 µM
# [19] = second compound 1 µM, first compound 0.316 µM
# [20] = second compound 1 µM, first compound 1 µM
# [21] = second compound 1 µM, first compound 3.16 µM
# [22] = second compound 1 µM, first compound 10 µM
# [23] = second compound 3.16 µM, first compound 0.316 µM
# [24] = second compound 3.16 µM, first compound 1 µM
# [25] = second compound 3.16 µM, first compound 3.16 µM
# [26] = second compound 3.16 µM, first compound 10 µM
# [27] = second compound 10 µM, first compound 0.316 µM
# [28] = second compound 10 µM, first compound 1 µM
# [29] = second compound 10 µM, first compound 3.16 µM
# [30] = second compound 10 µM, first compound 10 µM
# 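Throughout, for viability, T/C: compound exposure lasted 7 days; 100% = DMSO vehicle control growth.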
Compound,IC50 (second compound 0.1 µM) [µM],IC50 (second compound 0.316 µM) [µM],IC50 (second compound 1 µM) [µM],IC50 (second compound 3.16 µM) [µM],IC50 (second compound 10 µM) [µM],"viability, T/C [1] [%]","viability, T/C [2] [%]","viability, T/C [3] [%]","viability, T/C [4] [%]","viability, T/C [5] [%]","viability, T/C [6] [%]","viability, T/C [7] [%]","viability, T/C [8] [%]","viability, T/C [9] [%]","viability, T/C [10] [%]","viability, T/C [11] [%]","viability, T/C [12] [%]","viability, T/C [13] [%]","viability, T/C [14] [%]","viability, T/C [15] [%]",also measured
CC[C@@]1(O)C(=O)OCc2c1cc1n(c2=O)Cc2cc3c(CN(C)C)c(O)ccc3nc2-1 + CC(CO)NC(=O)c1cc(-c2ccc(Cl)cc2)nn(-c2cnn(C)c2)c1=O,> 0.1,> 0.1,> 0.1,0.0878,0.0846,69.7,51.7,69.5,58.6,75,57.3,65.9,47.8,70.5,46.5,,,,,,"viability, T/C (second compound 0.1 µM, first compound 0.000316 µM): 102%; viability, T/C (second compound 0.1 µM, first compound 0.001 µM): 95.5%; viability, T/C (second compound 0.1 µM, first compound 0.00316 µM): 90.4%; viability, T/C (second compound 0.1 µM, first compound 0.01 µM): 86.8%; viability, T/C (second compound 0.316 µM, first compound 0.000316 µM): 97.2%; viability, T/C (second compound 0.316 µM, first compound 0.001 µM): 98%; viability, T/C (second compound 0.316 µM, first compound 0.00316 µM): 92.9%; viability, T/C (second compound 0.316 µM, first compound 0.01 µM): 80.6%; viability, T/C (second compound 1 µM, first compound 0.000316 µM): 101%; viability, T/C (second compound 1 µM, first compound 0.001 µM): 110%; viability, T/C (second compound 1 µM, first compound 0.00316 µM): 93.6%; viability, T/C (second compound 1 µM, first compound 0.01 µM): 80.8%; viability, T/C (second compound 3.16 µM, first compound 0.000316 µM): 90.5%; viability, T/C (second compound 3.16 µM, first compound 0.001 µM): 97%; viability, T/C (second compound 3.16 µM, first compound 0.00316 µM): 91.4%; viability, T/C (second compound 3.16 µM, first compound 0.01 µM): 78.2%; viability, T/C (second compound 10 µM, first compound 0.000316 µM): 100%; viability, T/C (second compound 10 µM, first compound 0.001 µM): 101%; viability, T/C (second compound 10 µM, first compound 0.00316 µM): 94.7%; viability, T/C (second compound 10 µM, first compound 0.01 µM): 93.2%"
COc1cc(C2c3cc4c(cc3C(OC3OC5COC(C)OC5C(O)C3O)C3COC(=O)C23)OCO4)cc(OC)c1O (stereo not given) + CC(CO)NC(=O)c1cc(-c2ccc(Cl)cc2)nn(-c2cnn(C)c2)c1=O,> 10,8.09,> 10,6.63,7.38,111,117,95.4,102,109,104,103,102,105,98.8,80,62.9,66,50.9,85.6,"viability, T/C [16]: 67.8%; viability, T/C [17]: 72.8%; viability, T/C [18]: 44.6%; viability, T/C [19]: 81.9%; viability, T/C [20]: 62.6%; viability, T/C [21]: 60.5%; viability, T/C [22]: 51.8%; viability, T/C [23]: 80%; viability, T/C [24]: 74.5%; viability, T/C [25]: 59.9%; viability, T/C [26]: 44.5%; viability, T/C [27]: 81.7%; viability, T/C [28]: 73.5%; viability, T/C [29]: 59.7%; viability, T/C [30]: 46.4%"
Nc1ccn(C2OC(CO)C(O)C2(F)F)c(=O)n1 (stereo not given) + CC(CO)NC(=O)c1cc(-c2ccc(Cl)cc2)nn(-c2cnn(C)c2)c1=O,< 0.0316,< 0.0316,< 0.0316,< 0.0316,< 0.0316,37,40.3,36.6,35.2,35,36.5,32.8,37.3,37.4,34.4,35.8,35.8,37.5,31.4,39.2,"viability, T/C [16]: 41.1%; viability, T/C [17]: 32%; viability, T/C [18]: 29.3%; viability, T/C [19]: 36.5%; viability, T/C [20]: 38.5%; viability, T/C [21]: 36.2%; viability, T/C [22]: 36.6%; viability, T/C [23]: 36.2%; viability, T/C [24]: 38.3%; viability, T/C [25]: 35.5%; viability, T/C [26]: 34.3%; viability, T/C [27]: 42.5%; viability, T/C [28]: 40.6%; viability, T/C [29]: 39.6%; viability, T/C [30]: 36%"
